Consider six compounds from ChEMBL document CHEMBL3045316, “Synthesis and analgesic activity of new heterocyclic compounds derived from monoterpenoids” (Med Chem Res, 2013).

Data set [1] concerns Mus musculus. The data set is described as follows: Analgesic activity in albino Mus musculus (mouse) assessed as inhibition of acetic acid-induced abdominal writhings at 10 mg/kg, po administered 1 hr before acetic acid injection measured for 5 to 8 min. The note with it: Abdomen. In kind it is functional. On the technique in general: Writhing tests count abdominal constrictions after an irritant is injected.

For data set [2], the system named is Mus musculus. The data set is described as follows: Analgesic activity in albino Mus musculus (mouse) assessed as protection against thermal stimulus-induced paw licking and jumping behaviour at 10 mg/kg, po measured after 1 hr by hot plate assay. In kind it is functional.
Data set [3] has as its system Mus musculus. Put plainly: Analgesic activity in albino Mus musculus (mouse) assessed as proportion of animals without pain behaviour symptoms at 10 mg/kg, po administered 1 hr before acetic acid injection measured for 5 to 8 min. In kind it is functional.
The subject of data set [4] is Mus musculus. The data set is described as follows: Selectivity index, ratio of LD50 for albino Mus musculus (mouse) to ED50 for albino Mus musculus (mouse) by hot-plate test. In general terms: Hot-plate and tail-flick tests time the reaction to a heat stimulus.
Data set [5] concerns Mus musculus. The data set is described as follows: Selectivity index, ratio of LD50 for albino Mus musculus (mouse) to ED50 for albino Mus musculus (mouse) by acetic acid-induced writhing test.
A short description of data set [6]: Acute toxicity in albino Mus musculus (mouse) assessed as mortality administered intragastrically by kreber method. The note with it: in vivo, po. Type of data set: organism-based.
For data set [7], the system named is Mus musculus. The data set is described as follows: Analgesic activity in po dosed albino Mus musculus (mouse) assessed as inhibition of acetic acid-induced abdominal writhings administered 1 hr before acetic acid injection measured for 5 to 8 min. Type of data set: functional. The note with it: Abdomen.
Data set [8] concerns Mus musculus. Put plainly: Analgesic activity in po dosed albino Mus musculus (mouse) assessed as protection against thermal stimulus-induced paw licking and jumping behaviour measured after 1 hr by hot plate assay. Type of data set: functional.

One may read the inhibition in vivo as the drop in the measured response relative to a control, in per cent. For `COc1cc([C@@H]2CC(C)(C)[C@@H]3CC=C(C)[C@@H](O)[C@@H]3O2)cc(OC)c1OC`, in the data set with Mus musculus [1], the inhibition in vivo at 10 mg/kg was 13%. Moreover, the Activity in the data set with Mus musculus [2] worked out at 16%.

For the compound `COc1cc([C@H]2O[C@@]3(C)C[C@H](c4cc(OC)c(OC)c(OC)c4)O[C@H]4C(=O)[C@H](C)[C@H]2C[C@H]43)cc(OC)c1OC`, the inhibition in vivo at 10 mg/kg in the data set on Mus musculus [1] was 50%. Moreover, the Activity was determined as 19% in the data set on Mus musculus [2] and 25% with Mus musculus [3].

As to `COc1ccc([C@H]2O[C@@]3(C)C[C@H](c4ccc(OC)c(OC)c4OC)O[C@H]4C(=O)[C@H](C)[C@H]2C[C@H]43)c(OC)c1OC`, the inhibition in vivo at 10 mg/kg in the data set on Mus musculus [1] was 23%. Besides, in the data set on Mus musculus [2], the Activity amounted to 9%.

In general, LD50 refers to the dose at which mortality reaches 50%. The term ED50 denotes the midpoint of the dose-response relation. Turning to `COc1cc([C@@H]2C[C@@]3(C)O[C@H]4C(C)=CC[C@@H]3[C@H]4O2)cc(OC)c1OC`, the “Ratio LD50/ED50” value with Mus musculus [4] and in the data set with Mus musculus [5] was 60 in each case. The inhibition in vivo at 10 mg/kg in the data set with Mus musculus [1] was 65%. Further, the figures for the Activity in the data set on Mus musculus [2] and in the data set with Mus musculus [3] were 72% and 25%, respectively. For the same compound, the median lethal dose (LD50) in data set [6] is 500 mg/kg. The ED50 with Mus musculus [7] is 22 mg/kg; in the data set with Mus musculus [8] it was 25 mg/kg.

For the compound `CC(=O)Oc1ccccc1C(=O)O` [ASPIRIN], the “Ratio LD50/ED50” value in the data set with Mus musculus [5] is 10.3.

With `O=C([O-])Cc1ccccc1Nc1c(Cl)cccc1Cl.[Na+]` [DICLOFENAC SODIUM], the inhibition in vivo at 10 mg/kg in the data set with Mus musculus [1] was determined as 90%. The Activity in the data set on Mus musculus [2] was 64%; with Mus musculus [3], 87.5%.
